Drawing on US12139478B2, “Compounds, compositions and methods” (Denali Therapeutics Inc., priority 2017, dated 2024), this text covers IC50 for twelve compounds.

For this assay, the system named is ATF4 translation. Briefly: ATF4 Nano Luciferase reporter integrated stress response (ISR) assay in H4 ATF4-NLuc cells. To be noted: Homo sapiens, 0.5 h, H4 ATF4-NLuc (clone 17) cells, compound 30 minutes, then sodium arsenite for 6 additional hours, luminescence readout. The format is cell-based, human. From the text:
Cellular stress leads to activation of the integrated stress response pathway through one of four eukaryotic initiation factor 2a kinases and halts global translation, while allowing for the translation of select transcripts like ATF4 (activating transcription factor 4) that are important for the response to cellular stress. During normal conditions, small open reading frames (ORFs) in the 5′ UTR of ATF4 occupy the ribosome and prevent translation of the coding sequence of ATF4. During stress conditions however, the ribosome scans past these upstream ORFs and preferentially begins translation at the coding sequence of ATF4. In this way, the translation, and thus protein level of ATF4 is a readout of ISR pathway activation. Thus, a fusion of the uORFs and the beginning of the coding sequence of ATF to a common cellular reporter like nano-luciferase allows for a sensitive and high-throughput readout of ISR pathway activity.
Compounds as provided herein were tested in the following assay. The ATF4 Nano Luciferase reporter was constructed by fusing the human full length 5′ untranslated region (5′-UTR) and a small portion of the coding sequence of the ATF4 gene upstream of the Nano Luciferase (NLuc) coding sequence lacking it's start codon. Specifically, nucleotides +1 through +364 (relative to the transcriptional start site) of ATF4 transcript variant 2 (NCBI NM_182810.2) flanked 5′ by EcoRI and 3′ by BamHI restriction enzyme sites were synthesized and cloned into the EcoRI/BamHI cloning sites of pLVX-EF1a-IRES-Puro lentivirus vector (Clontech). Lentiviral particles were produced with Lenti-X single shots (VSV-G, Clontech) according to the manufacturer's instructions and used to transduce a human H4 neuroglioma cell line (ATCC HTB-148). H4 cells were selected with 1.25 μg/mL Puromycin, and clonal cell lines generated by limiting dilution. We utilized this cell line to generate an integrated stress response (ISR) assay to evaluate the activity of ISR pathway inhibitors via luminescence readout. The H4 ATF4-NLuc (clone 17) cell line is plated at a density of […] in 96-well or 384-well respectively in DMEM+[…]. 24-hours later test compounds diluted in dimethyl sulfoxide (DMSO) are added for 30 minutes at 37° C., followed by ISR pathway activation with […] sodium arsenite aqueous solution for 6 additional hours. Nano Glo luciferase reagent (N1150, Promega) is added according to manufacturer instructions and the luminescence signal (corresponding to the level of ATF4 translation and thus ISR pathway activation) is read with a standard plate reader with luminescence detection capabilities. […] In the tables below, activity of the tested compounds is provided, and in Table 3 as follows: […]; ++=IC50 1-10 μM; +=IC50>10 μM.
(In general: Reporter assays use an easily measured gene product as a stand-in for the process of interest.)

Setting [1] is: read-out: Biological Example 1 (ATF4 translation, IC50 nM).

The structures appear in SMILES notation. Where two headings read alike, the source gives them in different places.

For the compound `O=C(N[C@@H]1CC[C@@H](c2nnc(C3CC(OC(F)(F)F)C3)o2)OC1)c1ccc2cc(Cl)ccc2n1` (stereo partly drawn) [Example 56, 6-chloro-N-[(3R,6S)-6-[5-[3-cis-(trifluoromethoxy)cyclobutyl]-1,3,4-oxadiazol-2-yl]tetrahydropyran-3-yl]quinoline-2-carboxamide], the IC50 (read-out: Activity) is less than 1000 nM.
Turning to `O=C(N[C@@H]1CC[C@@H](c2nnc(C3CC(OC(F)(F)F)C3)o2)OC1)c1ccc2cc(F)ccc2n1` (stereo partly drawn) [Example 57, 6-fluoro-N-((3R,6S)-6-(5-(3-cis-(trifluoromethoxy)cyclobutyl)-1,3,4-oxadiazol-2-yl)tetrahydro-2H-pyran-3-yl)quinoline-2-carboxamide], the IC50 (read-out: Activity) is less than 1000 nM.
`O=C(COc1ccc(Cl)c(F)c1)N[C@@H]1CC[C@@H](c2nc([C@H]3C[C@@H](OC(F)(F)F)C3)no2)OC1` [Example 58, 2-(4-chloro-3-fluorophenoxy)-N-((3R,6S)-6-(3-(3-cis-(trifluoromethoxy)cyclobutyl)-1,2,4-oxadiazol-5-yl)tetrahydro-2H-pyran-3-yl)acetamide]: the IC50 (read-out: Activity) was less than 1000 nM and the IC50 under setting [1] was found to be 3.7 nM.
As for `O=C(N[C@H]1CO[C@H](c2nnc(C3CC(OC(F)(F)F)C3)o2)CC1(F)F)c1ccc2cc(F)ccc2n1` (stereo partly drawn) [Example 59, N-((3S,6S)-4,4-difluoro-6-(5-(3-cis-(trifluoromethoxy)cyclobutyl)-1,3,4-oxadiazol-2-yl)tetrahydro-2H-pyran-3-yl)-6-fluoroquinoline-2-carboxamide], for the setting “read-out: Activity”, the IC50 is less than 1000 nM.
For `O=C(N[C@@H]1CC[C@@H](c2nnc(C3CC(OC(F)(F)F)C3)o2)OC1)c1ccc2cc(C(F)(F)F)ccc2n1` (stereo partly drawn) [Example 60, N-((3R,6S)-6-(5-(3-cis-(trifluoromethoxy)cyclobutyl)-1,3,4-oxadiazol-2-yl)tetrahydro-2H-pyran-3-yl)-6-(trifluoromethyl)quinoline-2-carboxamide], the IC50 was less than 1000 nM (read-out: Activity) and 3.5 nM under setting [1].
As for `O=C(COc1ccc(C(F)(F)F)cc1)N[C@H]1CO[C@H](c2nnc(C3CC(OC(F)(F)F)C3)o2)CC1(F)F` (stereo partly drawn) [Example 61, N-((3S,6S)-4,4-difluoro-6-(5-(3-cis-(trifluoromethoxy)cyclobutyl)-1,3,4-oxadiazol-2-yl)tetrahydro-2H-pyran-3-yl)-2-(4-(trifluoromethyl)phenoxy)acetamide], the IC50 by setting is: (read-out: Activity) less than 1000 nM; under setting [1], 14.4 nM.
In the case of `O=C(COc1ccc(Cl)c(F)c1)N[C@H]1CO[C@H](c2nnc(C3CC(OC(F)(F)F)C3)o2)CC1(F)F` (stereo partly drawn) [Example 62, 2-(4-chloro-3-fluorophenoxy)-N-((3S,6S)-4,4-difluoro-6-(5-(3-cis-(trifluoromethoxy)cyclobutyl)-1,3,4-oxadiazol-2-yl)tetrahydro-2H-pyran-3-yl)acetamide], the IC50 (read-out: Activity) is less than 1000 nM.
On the same count and under the same terms, the value for `O=C(N[C@@H]1CC[C@@H](c2nnc(C3CC(OC(F)(F)F)C3)o2)OC1)[C@@H]1CCc2cc(F)ccc2O1` (stereo partly drawn) [Example 66, 6-fluoro-N-((3R,6S)-6-(5-(3-cis-(trifluoromethoxy)cyclobutyl)-1,3,4-oxadiazol-2-yl)tetrahydro-2H-pyran-3-yl)chroman-2-carboxamide] was less than 1000 nM.
For `O=C(COc1ccc(Cl)cc1)N[C@H]1CO[C@H](c2nnc(C3CC(OC(F)(F)F)C3)o2)C[C@@H]1F` (stereo partly drawn) [Example 67, 2-(4-chlorophenoxy)-N-((3S,4S,6S)-4-fluoro-6-(5-(3-cis-(trifluoromethoxy)cyclobutyl)-1,3,4-oxadiazol-2-yl)tetrahydro-2H-pyran-3-yl)acetamide], the IC50 is, setting by setting: (read-out: Activity) less than 1000 nM; under setting [1], 3.1 nM.
Consider `O=C(COc1ccc(Cl)cc1)N[C@H]1CO[C@H](c2nnc(C3CC(OC(F)(F)F)C3)o2)[C@@H](F)C1` (stereo partly drawn) [Example 68, 2-(4-chlorophenoxy)-N-((3R,5S,6R)-5-fluoro-6-(5-(3-cis-(trifluoromethoxy)cyclobutyl)-1,3,4-oxadiazol-2-yl)tetrahydro-2H-pyran-3-yl)acetamide], for which the IC50 (read-out: Activity) is less than 1000 nM.
As for `O=C(N[C@@H]1CC[C@@H](c2nnc(C3CC(OC(F)(F)F)C3)o2)OC1)c1ccc2cc(F)c(F)cc2n1` (stereo partly drawn) [Example 75, 6,7-difluoro-N-((3R,6S)-6-(5-(3-cis-(trifluoromethoxy)cyclobutyl)-1,3,4-oxadiazol-2-yl)tetrahydro-2H-pyran-3-yl)quinoline-2-carboxamide], the IC50 reads like this: (read-out: Activity) less than 1000 nM; under setting [1], 8.9 nM.
Regarding `O=C(N[C@@H]1CC[C@@H](c2nnc(C3CC(OC(F)(F)F)C3)o2)OC1)c1ccc2c(F)c(F)ccc2n1` (some centres unmarked) [Example 76], the IC50 (read-out: Activity) is less than 1000 nM.
